Assay results: a melting point compilation (Tetko et al.; mined from patent text by program, amines drawn as free bases though some values may be those of a salt)

| melting point | SMILES |
| --- | --- |
| 126 to 128 °C | COc1ccc(-c2noc3cc(OC)ccc23)c(C)c1 |
| 222 to 224 °C | CC(C(N)=O)c1ccc(-c2ccc(F)cc2F)c(O)c1 (stereo not drawn) |
| 112 to 113 °C | CCOc1ccc(-c2nc(-c3ccc(OS(=O)(=O)C(F)(F)F)c(C(=O)OC)c3)cs2)cc1OCC |
| 49 to 51 °C | Cc1ccc(OCCO)cn1 |
| 163 to 164 °C | CCOC(=O)c1ncn(-c2ccc(Cl)c(Cl)c2)c1C |
| 215 to 220 °C | CCCCc1nc2cccc(C(=O)OC)c2n1Cc1ccc(-c2cncnc2-c2nnn[nH]2)cc1 |
| 112 to 121 °C | CCCCc1c(OS(=O)(=O)c2ccc(C)cc2)n(-c2ccccc2)n(-c2ccccc2)c1=O |
| 235 to 236 °C | Cc1nc(-c2cccc([N+](=O)[O-])c2)sc1C(=O)O |
| 148 to 150 °C | CC(O)c1nc2c(OCc3ccccc3)cccc2n1C (stereo not drawn) |
| 193 to 196 °C | CCOC(=O)/C=C/c1cccc(-c2c(CC(=O)Nc3ccc(F)cc3C(F)(F)F)c(=O)oc3cc(Cl)c(C)cc23)c1 |
| 89 to 91 °C | Fc1ccc(Oc2ccnc3cc(Cl)ccc23)cc1 |
| 146 to 147 °C | COC(=O)Cc1cccc(OC)c1OCCCc1cn(-c2ccc(C(=O)O)nn2)nc1C(C)C |
| 193 to 194 °C | Cc1nn(C)cc1C(=O)Nc1ccc(OCC(C)(C)C)c(C#N)c1 |
| 184 to 185 °C | CCOC(=O)c1ccc2nc3n(c(=O)c2c1)CCC3=Cc1ccccc1C |
| 171 to 172 °C | CCc1ccc(C=C2CCCN(c3nc(C)c(C(=O)NCc4ccccc4)s3)C2=O)s1 |
| 168 to 170 °C | CC(=O)Nc1ccc(F)cc1C(=O)O |
| 123 to 126 °C | CC(C)(C)c1ccc(CCC(=O)N2C(=O)OC[C@@H]2Cc2ccccc2)cc1 |
| 93 to 96 °C | CCCCN(CCCC)S(=O)(=O)c1cc(C(=O)O)ccc1Cl |

Further lines, the molecule ahead of its results:

| SMILES | melting point |
| --- | --- |
| OC[C@H]1O[C@@H](n2cnc3c(N[C@@H]4CCN(c5ccc(C(F)(F)F)cn5)C4)ncnc32)[C@H](O)[C@@H]1O | 166 to 170 °C |
| Cc1sc(S(N)(=O)=O)cc1[N+](=O)[O-] | 120 °C |
| O=C(O)c1ccc(COCc2csc3nc(C(=O)O)[nH]c(=O)c23)cc1 | 248 °C |
| CS(=O)(=O)Nc1cc2c(cc1Oc1ccccc1)C(=O)C(Sc1ccccc1)C2 (stereo not drawn) | 86 °C |
| COc1cc(OCc2ccncc2)ccc1/C=C/c1cc(/C=C/c2ccc3[nH]ccc3c2)n[nH]1 | 133 to 141 °C |
| Cc1c(NC(=O)c2ccc(-c3ccc(F)cc3)cc2)ccc2cc(CN3CCC3)cnc12 | 153 to 155 °C |
| COc1ccc(/C=C(/C#N)c2c(F)cccc2F)cc1OC1CCCC1 | 79.1 to 81 °C |
| COC(=O)C1(C(=O)OC)CN(C(=O)OC(C)(C)C)c2cc([N+](=O)[O-])ccc21 | 132 °C |
| CNC(=O)C1CC(C)CCC1C(C)C (stereo not drawn) | 95 to 97 °C |
| COc1cc(Nc2nc3cccc(-c4ccc(C(N)=O)cc4)c3o2)cc(OC)c1OC | > 280 °C |
| Cn1cc(-c2ccccc2)c(=O)c(-c2ccc([N+](=O)[O-])cc2)c1 | 212 to 214 °C |
| CC1CCCC(C)N1c1cc(F)cc(C(=O)Nc2ccc(OCCN3CCOCC3)c3ccccc23)c1 (stereo not drawn) | 105 to 107 °C |
| O=C1c2cc(OCc3ccccn3)ccc2CC1Cc1ccccc1 (stereo not drawn) | 94 to 97 °C |
| Nc1ccc(S(=O)(=O)Nc2ccc(S(N)(=O)=O)cc2)cc1Cl | 197 to 198 °C |
| COC(=O)c1cc(SC(=O)N(C)C)cc(SC(=O)N(C)C)c1 | 128 to 130 °C |
| CCCN(Cc1cccc(C(=N)N)c1)C(=O)Nc1ccc(-c2ccccc2S(=O)(=O)NC(C)(C)C)cc1 | 201 to 202 °C |
| CCCCCOC(=O)Oc1ccc(-c2ccc(C#N)cc2)cc1 | 50.1 to 51 °C |
| CCS(=O)(=O)c1ccc(C(=O)C2C(=O)CCCC2=O)c(Cl)c1C1=NOC2OCCC12 (stereo not drawn) | 99 °C |
| O=S1(=O)N=C2CCCN2c2ccc(S(=O)(=O)NC3CCCCC3)cc21 | 151 to 153 °C |
| COc1ccc2c(Cc3ccc(OC4CCCC4N4CCCCC4)cc3)c(-c3ccc(OCCN4CCCC4)cc3)sc2c1 (stereo not drawn) | 61 to 64 °C |
